The results in this text go back to US20260007681A1, “INDOLE DERIVATIVES AS ESTROGEN RECEPTOR DEGRADERS” (REGENTS OF THE UNIVERSITY OF MICHIGAN, priority 2022, published 2026).

One test concerns the target ER (Homo sapiens (Human), UniProt P03372). In words: In-cell western blot analysis of relative ER percentage (Compounds B1-B278). Format: cell-based. Conditions: ER degradation, 16 hours, read-out: ICW DC50. As for the experimental part: In-cell western blot analysis. Cells are seeded in multi-well plates (e.g., at 40,000 or 10,000 cells/well). Diluted compounds at certain concentration are added (final 0.5% DMSO) and cells are incubated for […] (e.g., 16 hours). Formaldehyde (e.g., PBS:FA=9:1) is added and followed by washing with PBS. The cells are blocked with Licor blocking buffer (Li-Cor). The relative ER percentage in treated cells are obtained by comparing the values of treated wells to those in untreated and DMSO-treated wells as 100%.
In-cell western blot analysis. a. seed cells in black-sided/clear bottom 96- or 384-well plates at 40,000 or 10,000 cells/well, overnight; b. add diluted compounds (final 0.5% DMSO), 16 hours. 16 h later, remove medium, add 100 μL or 25 μL of 3.7-4.0% formaldehyde (PBS:FA=9:1), RT 20 min, no shaking; c. wash with PBS, and permeabilized with 100 μL or 25 μL/well of 1×PBS+0.1% Triton X-100 10 minutes; d. block with 100 μL or 25 μL Licor blocking buffer (Li-Cor), RT 1 h, moderate shaking; d. Add 100 μL or 25 μL of anti-ER (cs-8644, 1:500-1,000)+GAPDH(Millipore MAB374, 1:1000) in Block+0.05% Tween 20. RT 2 h, gentle shaking. Negative control: cells plus secondary antibodies (no primary antibodies); e. wash×4 with PBS +0.05-0.1% Tween 20, gentel shaking; f. anti-rabbit-680 and anti-mouse-800 (both 1:1000 in LiCor block +0.05% Tween20, RT 1 h, gentle shaking, no light. LI-COR: 0.2% to reduce background; g. wash×4 with PBS+0.05% Tween 20, gental shaking; h. add 100 μL or 25 μL of PBS to each well and read on CLX plate reader. The relative ER percentage in treated cells were obtained by comparing the values of treated wells to those in untreated and DMSO-treated wells as 100%.

Test [1] is described as follows: Cell growth assay (WST-8) (Compounds B1-B278). It is filed as cell-based. Conditions: T47D cell line, WST-8, 4 days, read-out: Cell Growth Inhibition in T47D cell line IC50. As to the method:
Cell Growth Assay. The cells are seeded at certain concentration (e.g., at 1500/well) in multi-well plates overnight. Cells are subsequently treated with the compounds. A certain period of time (e.g., 4 days) after the compound treatment, 10% WST-8 reagent is added to the culture medium and incubate under certain condiction (e.g., in a CO2 incubator at 37° C. for 2.5 hours). The absorbance is measured on each sample using a microplate reader at certain wavelength (e.g., 450 nm). The relative absorbance is calculated against the vehicle control from three individually repeats.
Cell Growth Assay. The cells were seeded at 1500/well in 96 well plates overnight. One day after the seeding, they were treated with indicated doses of compounds respectively. 4 days after the compound treatment, 10% WST-8 reagent was added to the culture medium and incubate in a CO2 incubator at 37° C. for 2.5 hours. Before reading, the plate was mixed gently on an orbital shaker for one minute to ensure homogeneous distribution of color. The absorbance was measured of each sample using a microplate reader at a wavelength of 450 nm. The relative absorbance was calculated against the vehicle control from three individually repeats.
A general note: Tetrazolium assays rely on reduction of a dye to a coloured formazan, in cell work by metabolically active cells.

Where two headings read alike, the source gives them in different places. Bounds are passed on as bounds.

ER, sequence (P03372 whole entry): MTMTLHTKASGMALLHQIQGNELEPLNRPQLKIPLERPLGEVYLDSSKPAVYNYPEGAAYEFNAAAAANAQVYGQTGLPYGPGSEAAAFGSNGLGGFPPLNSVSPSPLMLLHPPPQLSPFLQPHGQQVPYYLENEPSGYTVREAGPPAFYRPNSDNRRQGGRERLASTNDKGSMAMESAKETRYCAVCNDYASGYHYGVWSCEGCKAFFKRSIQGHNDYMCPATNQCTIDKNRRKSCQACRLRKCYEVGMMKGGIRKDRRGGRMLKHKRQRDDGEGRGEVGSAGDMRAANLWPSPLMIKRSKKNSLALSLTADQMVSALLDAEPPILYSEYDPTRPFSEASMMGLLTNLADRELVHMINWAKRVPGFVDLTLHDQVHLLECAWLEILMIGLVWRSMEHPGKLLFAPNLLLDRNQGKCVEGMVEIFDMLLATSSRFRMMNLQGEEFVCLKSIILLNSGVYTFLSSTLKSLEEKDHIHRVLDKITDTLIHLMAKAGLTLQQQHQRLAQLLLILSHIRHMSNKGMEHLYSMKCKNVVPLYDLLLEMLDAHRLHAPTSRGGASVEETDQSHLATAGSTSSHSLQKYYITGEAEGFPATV

Broadly, the DC50 is the concentration at which degradation of the target reaches its halfway point. For orientation: IC50 means the concentration that gives 50% inhibition. Consider `C[C@@H]1Cc2c([nH]c3ccccc23)[C@@H](c2c(F)cc(N3CC(C(=O)N4CCN5c6ccc7c(c6OC[C@H]5C4)CN(C4CCC(=O)NC4=O)C7=O)C3)cc2F)N1CC(F)F` (mixture of isomers) [Compound B251, 3-((RS)-7-(1-(4-((1R,3R)-2-(2,2-difluoroethyl)-3-methyl-2,3,4,9-tetrahydro-1H-pyrido[3,4-b]indol-1-yl)-3,5-difluorophenyl)azetidine-3-carbonyl)-1-oxo-1,3,5,5a,6,7,8,9-octahydro-2H-pyrazino[1′,2′:4,5][1,4]oxazino[2,3-e]isoindol-2-yl)piperidine-2,6-dione], for which the half-maximal degradation concentration (DC50) on ER fell in the range of 0.01 to 0.1 µM. Moreover, the IC50 in test [1] (96 h) was below 0.001 µM.
As to `C[C@@H]1Cc2c([nH]c3ccccc23)[C@@H](c2c(F)cc(N3CCC(C(=O)N4CCN5c6ccc7c(c6OC[C@H]5C4)CN(C4CCC(=O)NC4=O)C7=O)CC3)cc2F)N1CC(C)(F)F` (mixture of isomers) [Compound B252, 3-((RS)-7-(1-(4-((1R,3R)-2-(2,2-difluoropropyl)-3-methyl-2,3,4,9-tetrahydro-1H-pyrido[3,4-b]indol-1-yl)-3,5-difluorophenyl)piperidine-4-carbonyl)-1-oxo-1,3,5,5a,6,7,8,9-octahydro-2H-pyrazino[1′,2′:4,5][1,4]oxazino[2,3-e]isoindol-2-yl)piperidine-2,6-dione], the DC50 at ER was 0.01 to 0.1 µM.
Take `C[C@@H]1Cc2c([nH]c3ccccc23)[C@@H](c2c(F)cc(N3CCC(CN4CCN5c6ccc7c(c6OC[C@H]5C4)CN(C4CCC(=O)NC4=O)C7=O)CC3)cc2F)N1CC(F)F` (mixture of isomers) [Compound B253, 3-((RS)-7-((1-(4-((1R,3R)-2-(2,2-difluoroethyl)-3-methyl-2,3,4,9-tetrahydro-1H-pyrido[3,4-b]indol-1-yl)-3,5-difluorophenyl)piperidin-4-yl)methyl)-1-oxo-1,3,5,5a,6,7,8,9-octahydro-2H-pyrazino[1′,2′:4,5][1,4]oxazino[2,3-e]isoindol-2-yl)piperidine-2,6-dione]: the DC50 at ER was 0.01 to 0.1 µM. Also, the IC50 in test [1] (96 h) is below 0.001 µM.
For `C[C@@H]1Cc2c([nH]c3ccccc23)[C@@H](c2cnc(N3CCC(CN4CCN5c6ccc7c(c6OC[C@H]5C4)CN(C4CCC(=O)NC4=O)C7=O)CC3)nc2)N1CC(F)F` (mixture of isomers) [Compound B254, 3-((RS)-7-((1-(5-((1R,3R)-2-(2,2-difluoroethyl)-3-methyl-2,3,4,9-tetrahydro-1H-pyrido[3,4-b]indol-1-yl)pyrimidin-2-yl)piperidin-4-yl)methyl)-1-oxo-1,3,5,5a,6,7,8,9-octahydro-2H-pyrazino[1′,2′:4,5][1,4]oxazino[2,3-e]isoindol-2-yl)piperidine-2,6-dione], in that order: 0.01 to 0.1 µM and below 0.001 µM.
For the molecule `C[C@@H]1Cc2c([nH]c3ccccc23)[C@@H](c2cnc(N3CCC(CN4CCN5c6ccc7c(c6OC[C@H]5C4)CN(C4CCC(=O)NC4=O)C7=O)CC3)nc2)N1CC(F)F` (mixture of isomers) [Compound B255, 3-((RS)-7-((1-(5-((1R,3R)-2-(2,2-difluoroethyl)-3-methyl-2,3,4,9-tetrahydro-1H-pyrido[3,4-b]indol-1-yl)pyrimidin-2-yl)piperidin-4-yl)methyl)-1-oxo-1,3,5,5a,6,7,8,9-octahydro-2H-pyrazino[1′,2′:4,5][1,4]oxazino[2,3-e]isoindol-2-yl)piperidine-2,6-dione], the DC50 on ER is above 0.1 µM. For the same molecule, the IC50 in test [1] is below 0.001 µM.
As to `C[C@@H]1Cc2c([nH]c3ccccc23)[C@@H](c2cnc(N3CCC(CN4CCN5c6ccc7c(c6OC[C@H]5C4)CN(C4CCC(=O)NC4=O)C7=O)CC3)nc2)N1CC(C)(C)F` (mixture of isomers) [Compound B256, 3-((RS)-7-((1-(5-((1R,3R)-2-(2-fluoro-2-methylpropyl)-3-methyl-2,3,4,9-tetrahydro-1H-pyrido[3,4-b]indol-1-yl)pyrimidin-2-yl)piperidin-4-yl)methyl)-1-oxo-1,3,5,5a,6,7,8,9-octahydro-2H-pyrazino[1′,2′:4,5][1,4]oxazino[2,3-e]isoindol-2-yl)piperidine-2,6-dione], the DC50 on ER is above 0.1 µM. In addition, the concentration for half-maximal inhibition (IC50) in test [1] (96 h) is below 0.001 µM.
As for `C[C@@H]1Cc2c([nH]c3ccccc23)[C@@H](c2cnc(N3CC4(CCC(N5CCN6c7cc8c(cc7OC[C@@H]6C5)C(=O)N(C5CCC(=O)NC5=O)C8)CC4)C3)nc2)N1CC(F)F` (stereo partly drawn) [Compound 1B32, 3-((S)-3-(2-(5-((1R,3R)-2-(2,2-difluoroethyl)-3-methyl-2,3,4,9-tetrahydro-1H-pyrido[3,4-b]indol-1-yl)pyrimidin-2-yl)-2-azaspiro[3.5]nonan-7-yl)-8-oxo-1,2,3,4,4a,5,8,10-octahydro-9H-pyrazino[1′,2′:4,5][1,4]oxazino[2,3-f]isoindol-9-yl)piperidine-2,6-dione], the IC50 in test [1] (96 h) was above 0.01 µM.
On the same count and under the same terms, the result for `C[C@@H]1Cc2c([nH]c3ccccc23)[C@@H](c2cnc(N3CC(CCN4CCN5c6cc7c(cc6OC[C@@H]5C4)C(=O)N(C4CCC(=O)NC4=O)C7)C3)nc2)N1CC(F)F` (stereo partly drawn) [Compound B131, 3-((S)-3-(2-(1-(5-((1R,3R)-2-(2,2-difluoroethyl)-3-methyl-2,3,4,9-tetrahydro-1H-pyrido[3,4-b]indol-1-yl)pyrimidin-2-yl)azetidin-3-yl)ethyl)-8-oxo-1,2,3,4,4a,5,8,10-octahydro-9H-pyrazino[1,2′:4,5][1,4]oxazino[2,3-f]isoindol-9-yl)piperidine-2,6-dione] reads above 0.01 µM; that for `C[C@@H]1Cc2c([nH]c3ccccc23)[C@@H](c2cnc(N3CC4(CC(CN5CCN6c7cc8c(cc7OC[C@@H]6C5)C(=O)N(C5CCC(=O)NC5=O)C8)C4)C3)nc2)N1CC(F)F` (stereo partly drawn) [Compound B133, 3-((S)-3-((2-(5-((1R,3R)-2-(2,2-difluoroethyl)-3-methyl-2,3,4,9-tetrahydro-1H-pyrido[3,4-b]indol-1-yl)pyrimidin-2-yl)-2-azaspiro[3.3]heptan-6-yl)methyl)-8-oxo-1,2,3,4,4a,5,8,10-octahydro-9H-pyrazino[1′,2′:4,5][1,4]oxazino[2,3-f]isoindol-9-yl)piperidine-2,6-dione], 0.001 to 0.01 µM.
Still for that read-out and setting: for `COc1c2c(cc3c1CN(C1CCC(=O)NC1=O)C3=O)CN(CC(=O)N1CCC3(CC1)CCN(c1ncc([C@@H]4c5[nH]c6ccccc6c5C[C@@H](C)N4CC(F)F)cn1)CC3)C2` (stereo partly drawn) [Compound B134, 3-(6-(2-(9-(5-((1R,3R)-2-(2,2-difluoroethyl)-3-methyl-2,3,4,9-tetrahydro-1H-pyrido[3,4-b]indol-1-yl)pyrimidin-2-yl)-3,9-diazaspiro[5.5]undecan-3-yl)-2-oxoethyl)-4-methoxy-1-oxo-3,5,6,7-tetrahydropyrrolo[3,4-f]isoindol-2(1H)-yl)piperidine-2,6-dione] the value was below 0.001 µM.
As for `C[C@@H]1Cc2c([nH]c3ccccc23)[C@@H](c2c(F)cc(N3CCN(CC(=O)N4CCN5c6ccc7c(c6OC[C@H]5C4)CN(C4CCC(=O)NC4=O)C7=O)CC3)cc2F)N1CC(F)F` (stereo partly drawn) [Compound B152, 3-((R)-7-(2-(4-(4-((1R,3R)-2-(2,2-difluoroethyl)-3-methyl-2,3,4,9-tetrahydro-1H-pyrido[3,4-b]indol-1-yl)-3,5-difluorophenyl)piperazin-1-yl)acetyl)-1-oxo-1,3,5,5a,6,7,8,9-octahydro-2H-pyrazino[1′,2′:4,5][1,4]oxazino[2,3-e]isoindol-2-yl)piperidine-2,6-dione], on ER, the DC50 was above 0.1 µM.
Take `COc1cc(N2CCC3(CC2)CC(CN2CCN4c5ccc6c(c5OC[C@H]4C2)CN(C2CCC(=O)NC2=O)C6=O)CO3)ccc1[C@@H]1c2[nH]c3ccccc3c2C[C@@H](C)N1CC(C)(C)F` (stereo partly drawn) [Compound B265, 3-((5aR)-7-((8-(4-((1R,3R)-2-(2-fluoro-2-methylpropyl)-3-methyl-2,3,4,9-tetrahydro-1H-pyrido[3,4-b]indol-1-yl)-3-methoxyphenyl)-1-oxa-8-azaspiro[4.5]decan-3-yl)methyl)-1-oxo-1,3,5,5a,6,7,8,9-octahydro-2H-pyrazino[1′,2′:4,5][1,4]oxazino[2,3-e]isoindol-2-yl)piperidine-2,6-dione]: the DC50 on ER lay within 0.01 to 0.1 µM.
